Measurements taken from PMC11286508, “Repurposing pexmetinib as an inhibitor of TKI-resistant BCR::ABL1” (Leukemia, 2024).

Tests used:
[1] = tested on: T1, BCR::ABL1 (Ba/F3 isogenic cells); assay: Ba/F3 MTS viability assay; format: cell-based; details: growth of BCR::ABL1-dependent Ba/F3 cells; parental Ba/F3 + IL-3 as control
T1 construct: BCR::ABL1 fusion oncoprotein, one polypeptide (BCR N-terminal, ABL1 C-terminal); expressed in murine Ba/F3 cells by electroporation; with Breakpoint cluster region protein

[2] = tested on: T1, BCR::ABL1 (Ba/F3 isogenic cells); assay: Ba/F3 MTS viability assay; format: cell-based; details: growth of BCR::ABL1-dependent Ba/F3 cells; stated gain

IC50 [2]: 2099 nM
Structure (SMILES): Cc1ccc(-n2nc(C(C)(C)C)cc2NC(=O)NCc2cc(F)ccc2Oc2ccc3c(cnn3CCO)c2)cc1 [pexmetinib]
IC50 [1]: 411 nM
